Reference: ChEMBL document CHEMBL6096702, “Discovery of a Novel p38α-MK2 Complex Inhibitor as a Potential Choice for Autoimmune Diseases” (J Med Chem, 2025)
The source made the active and inactive calls. The calls are words filed in the database; no cut-off is given here.

How the values were obtained:
[1] = AUC (0 to 24 hrs) in female Lewis rat at 3 mg/kg, po measured after 24 hrs by LC-MS/MS analysis; assay type: ADME, organism-based; details: in vivo
[2] = target: Voltage-gated inwardly rectifying potassium channel KCNH2 (Homo sapiens, UniProt Q12809); experiment: Inhibition of human ERG in HEK293 cells; assay type: toxicity, cell-based
Chain of Voltage-gated inwardly rectifying potassium channel KCNH2 (Q12809 whole entry): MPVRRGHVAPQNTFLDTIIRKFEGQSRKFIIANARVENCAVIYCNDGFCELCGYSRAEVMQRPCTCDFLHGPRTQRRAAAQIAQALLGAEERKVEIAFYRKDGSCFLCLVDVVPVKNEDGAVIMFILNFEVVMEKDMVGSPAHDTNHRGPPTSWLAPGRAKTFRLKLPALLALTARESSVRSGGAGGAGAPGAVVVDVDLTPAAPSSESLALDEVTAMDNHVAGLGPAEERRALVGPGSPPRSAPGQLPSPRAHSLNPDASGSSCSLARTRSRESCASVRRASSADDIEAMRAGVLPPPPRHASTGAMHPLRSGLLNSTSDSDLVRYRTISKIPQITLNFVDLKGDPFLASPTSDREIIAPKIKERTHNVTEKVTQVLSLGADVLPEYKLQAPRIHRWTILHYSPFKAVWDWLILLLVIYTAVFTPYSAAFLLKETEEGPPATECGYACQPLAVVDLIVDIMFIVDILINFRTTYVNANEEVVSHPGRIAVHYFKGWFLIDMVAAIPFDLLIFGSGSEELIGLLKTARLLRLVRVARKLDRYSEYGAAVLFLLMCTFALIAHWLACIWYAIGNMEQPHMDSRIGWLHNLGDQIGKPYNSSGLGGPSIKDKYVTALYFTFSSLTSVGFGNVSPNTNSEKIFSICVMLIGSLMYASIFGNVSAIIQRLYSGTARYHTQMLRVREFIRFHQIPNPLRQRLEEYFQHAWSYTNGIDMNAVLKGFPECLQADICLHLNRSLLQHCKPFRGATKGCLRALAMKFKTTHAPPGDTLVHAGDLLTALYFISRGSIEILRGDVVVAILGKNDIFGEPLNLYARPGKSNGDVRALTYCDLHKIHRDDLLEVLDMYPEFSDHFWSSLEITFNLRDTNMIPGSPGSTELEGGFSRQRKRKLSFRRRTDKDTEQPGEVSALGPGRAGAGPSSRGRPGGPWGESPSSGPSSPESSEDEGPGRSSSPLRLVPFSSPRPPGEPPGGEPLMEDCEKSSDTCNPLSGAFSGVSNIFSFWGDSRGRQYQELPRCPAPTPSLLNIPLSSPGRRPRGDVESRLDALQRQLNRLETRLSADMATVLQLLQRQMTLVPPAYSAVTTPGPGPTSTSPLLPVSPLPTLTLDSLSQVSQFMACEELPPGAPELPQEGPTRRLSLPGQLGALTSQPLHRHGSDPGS

Cytochrome P450 1A2 = target: T1, Cytochrome P450 1A2 (Homo sapiens, UniProt P05177); experiment: Inhibition of CYP1A2 in human liver microsomes using phenacetin as substrate in presence of NADP by LC-MS/MS analysis; assay type: ADME, Microsome
T1 sequence (P05177 whole entry): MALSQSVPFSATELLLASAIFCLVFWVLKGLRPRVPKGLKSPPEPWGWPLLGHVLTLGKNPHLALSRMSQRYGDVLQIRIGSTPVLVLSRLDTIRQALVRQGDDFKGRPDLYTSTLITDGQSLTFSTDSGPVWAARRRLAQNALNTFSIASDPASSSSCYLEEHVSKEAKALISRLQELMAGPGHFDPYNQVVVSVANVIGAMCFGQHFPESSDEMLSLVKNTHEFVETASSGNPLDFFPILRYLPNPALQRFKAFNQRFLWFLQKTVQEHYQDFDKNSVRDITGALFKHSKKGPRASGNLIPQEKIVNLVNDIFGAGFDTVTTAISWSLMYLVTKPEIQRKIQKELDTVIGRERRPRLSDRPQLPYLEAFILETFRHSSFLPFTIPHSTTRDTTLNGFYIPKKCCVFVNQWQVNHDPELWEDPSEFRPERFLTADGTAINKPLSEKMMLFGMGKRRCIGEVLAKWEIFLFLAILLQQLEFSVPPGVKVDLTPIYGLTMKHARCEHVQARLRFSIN

[3] = AUClast in male Beagle dog at 2 mg/kg, po measured after 24 hrs by LC-MS/MS analysis; assay type: ADME, organism-based, Canis lupus familiaris; details: in vivo
PBMC = experiment: Inhibition of LPS-induced TNF-alpha production in human PBMC cells at 0.01 to 10000 nM preincubated with compound for 1 hrs followed by LPS addition and measured after 4 hrs; assay type: functional, cell-based; details: dose 0.01-10000 nM, time 5.0 hrs
[4] = Half-life in female Lewis rat at 1 mg/kg, po measured after 24 hrs by LC-MS/MS analysis; assay type: ADME, organism-based; details: in vivo
[5] = AUC (0 to 24 hrs) in female Lewis rat at 1 mg/kg, po measured after 24 hrs by LC-MS/MS analysis; assay type: ADME, organism-based; details: in vivo
[6] = AUClast in male Sprague-Dawley rat at 1 mg/kg, iv measured after 24 hrs by LC-MS/MS analysis; assay type: ADME, organism-based; details: in vivo
Cytochrome P450 3A4 = Cytochrome P450 3A4 (Homo sapiens, UniProt P08684); experiment: Inhibition of CYP3A4 in human liver microsomes using testosterone as substrate in presence of NADP by LC-MS/MS analysis; assay type: ADME, Microsome
Chain of Cytochrome P450 3A4 (P08684 whole entry): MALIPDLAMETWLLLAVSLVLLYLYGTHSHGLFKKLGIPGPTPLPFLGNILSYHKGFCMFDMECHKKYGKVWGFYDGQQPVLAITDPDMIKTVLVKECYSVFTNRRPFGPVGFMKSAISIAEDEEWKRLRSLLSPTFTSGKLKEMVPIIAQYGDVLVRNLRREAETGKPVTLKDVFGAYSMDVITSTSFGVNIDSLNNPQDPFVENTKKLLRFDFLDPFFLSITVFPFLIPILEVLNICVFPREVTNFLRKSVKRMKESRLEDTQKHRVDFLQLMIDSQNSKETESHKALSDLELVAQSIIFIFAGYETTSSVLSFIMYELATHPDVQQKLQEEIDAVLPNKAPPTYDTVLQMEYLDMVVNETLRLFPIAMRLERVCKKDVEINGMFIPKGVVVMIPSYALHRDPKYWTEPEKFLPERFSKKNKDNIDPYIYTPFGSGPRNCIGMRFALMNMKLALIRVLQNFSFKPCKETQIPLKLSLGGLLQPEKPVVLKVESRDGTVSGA

[7] = Clearance in male Sprague-Dawley rat at 1 mg/kg, iv measured after 24 hrs by LC-MS/MS analysis; assay type: ADME, organism-based; details: in vivo
[8] = AUClast in male Beagle dog at 1 mg/kg, iv measured after 24 hrs by LC-MS/MS analysis; assay type: ADME, organism-based, Canis lupus familiaris; details: in vivo
[9] = MRT in male Sprague-Dawley rat at 1 mg/kg, iv measured after 24 hrs by LC-MS/MS analysis; assay type: ADME, organism-based; details: in vivo
[10] = Half-life in male Sprague-Dawley rat at 1 mg/kg, iv measured after 24 hrs by LC-MS/MS analysis; assay type: ADME, organism-based; details: in vivo

Cc1cnc(-c2ccnc(C(C)(C)O)n2)c(F)c1-n1c(C)cc(O[C@@H](C)c2ncc(F)cc2F)c(C)c1=O
AUC(0-t) at 24 h [1]: 6480 ng·h/mL | IC50 [2]: > 30 µM | IC50 (Cytochrome P450 1A2): > 40 µM | AUC(0-t) at 24 h [3]: 5080 ng·h/mL | inhibition (PBMC): Active | half-life [4]: 3.9 h | AUC(0-t) at 24 h [5]: 2390 ng·h/mL | AUC(0-t) at 24 h [6]: 1800 ng·h/mL | IC50 (Cytochrome P450 3A4): > 40 µM | clearance [7]: 9.6 mL/min/kg | AUC(0-t) at 24 h [8]: 3750 ng·h/mL | MRT [9]: 2.2 h | half-life [10]: 2.8 h
